Test results reported in ChEMBL document CHEMBL5550222, “Synthesis and Biological Evaluation of Novel Psidium Meroterpenoid Derivatives against Cisplatin-Induced Acute Kidney Injury” (J Med Chem, 2024).
The source made the active and inactive calls. No cut-off for these calls is given here.

Tests used:
[1] = target: T1, Tyrosine-protein phosphatase non-receptor type 1 (Homo sapiens, UniProt P18031); assay: Inhibition of PTP1B (unknown origin)
T1 sequence (P18031 whole entry): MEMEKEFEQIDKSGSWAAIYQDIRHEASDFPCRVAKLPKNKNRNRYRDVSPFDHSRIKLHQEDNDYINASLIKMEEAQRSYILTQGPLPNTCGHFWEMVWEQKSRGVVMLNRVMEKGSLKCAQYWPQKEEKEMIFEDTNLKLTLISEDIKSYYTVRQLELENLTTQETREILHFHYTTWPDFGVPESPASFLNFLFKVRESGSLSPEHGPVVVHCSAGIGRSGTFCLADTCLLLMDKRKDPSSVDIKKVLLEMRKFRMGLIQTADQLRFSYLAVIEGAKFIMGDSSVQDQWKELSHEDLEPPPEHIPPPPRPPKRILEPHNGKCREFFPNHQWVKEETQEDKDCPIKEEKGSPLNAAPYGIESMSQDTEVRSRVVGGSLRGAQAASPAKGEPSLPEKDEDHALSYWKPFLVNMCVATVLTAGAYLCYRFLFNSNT

HK-2 [2] = assay: Protection against cisplatin-induced nephrotoxicity in human HK-2 cells assessed as cell viability at 5 uM preincubated with compound for 2 hrs followed by cisplatin induction and measured after 72 hrs by MTT assay (reference value: 37.37 +/- 1.35%); assay type: functional; conditions: time 74 hrs, read-out: Activity
HK-2 [3] = assay: Protection against cisplatin-induced nephrotoxicity in human HK-2 cells assessed as cell viability at 1 uM preincubated with compound for 2 hrs followed by cisplatin induction and measured after 72 hrs by MTT assay (reference value: 37.37 +/- 1.35%); assay type: functional; conditions: time 74 hrs, read-out: Activity
HK-2 [4] = assay: Protection against cisplatin-induced nephrotoxicity in human HK-2 cells assessed as cell viability at 1 uM preincubated with compound for 2 hrs followed by cisplatin induction and measured after 72 hrs by MTT assay (reference value: 45.1 +/- 3.2%); assay type: functional; conditions: time 74 hrs, read-out: Activity
HK-2 [5] = assay: Protection against cisplatin-induced nephrotoxicity in human HK-2 cells at 5 to 10 uM preincubated with compound for 2 hrs followed by cisplatin induction and measured after 72 hrs by MTT assay; assay type: functional, cell-based; conditions: dose 5-10 µM, time 74.0 hrs
HK-2 [6] = assay: Protection against cisplatin-induced nephrotoxicity in human HK-2 cells preincubated with compound for 2 hrs followed by cisplatin induction and measured after 72 hrs by MTT assay; assay type: functional, cell-based; conditions: dose 1-10 µM, time 74.0 hrs
HK-2 [7] = assay: Protection against cisplatin-induced nephrotoxicity in human HK-2 cells assessed as cell viability at 10 uM preincubated with compound for 2 hrs followed by cisplatin induction and measured after 72 hrs by MTT assay (reference value: 45.1 +/- 3.2%); assay type: functional; conditions: time 74 hrs, read-out: Activity
HK-2 [8] = assay: Protection against cisplatin-induced nephrotoxicity in human HK-2 cells increase in viability at 10 uM preincubated with compound for 2 hrs followed by cisplatin induction and measured after 72 hrs by MTT assay (reference value: 45.1%); assay type: functional; conditions: time 74 hrs
HK-2 [9] = assay: Protection against cisplatin-induced nephrotoxicity in human HK-2 cells assessed as cell viability at 5 uM preincubated with compound for 2 hrs followed by cisplatin induction and measured after 72 hrs by MTT assay (reference value: 45.1 +/- 3.2%); assay type: functional; conditions: time 74 hrs, read-out: Activity
[10] = Cytotoxicity against human HK-2 cells incubated for 72 hrs by MTT assay; assay type: toxicity, cell-based
HK-2 [11] = assay: Protection against cisplatin-induced nephrotoxicity in human HK-2 cells assessed as cell viability at 10 uM preincubated with compound for 2 hrs followed by cisplatin induction and measured after 72 hrs by MTT assay (reference value: 37.37 +/- 1.35%); assay type: functional; conditions: time 74 hrs, read-out: Activity
[12] = Antitumor activity against cisplatin-induced mouse Lewis lung carcinoma cell line xenografted C57BL/6J mouse assessed as reduction in tumor mass at 50 mg/kg, po preadministered with compound for 3 days followed by cisplatin addition on day 3 and measured 72 hrs post cisplatin administration; assay type: functional; parameters: scale not given: the % may be the effect or the level left; conditions: time 6 day

| SMILES | viability at 1 µM (HK-2 [4]) [%] | Activity (HK-2 [5]) | viability at 10 µM (HK-2 [7]) [%] | viability at 5 µM (HK-2 [9]) [%] | IC50 at 72 h [10] [µM] | further results |
| --- | --- | --- | --- | --- | --- | --- |
| C=C1CC[C@@H]2[C@H](c3ccccc3)c3c(O)c(C=O)c(O)c(C=O)c3O[C@@]2(C)CC[C@H]2[C@H]1CC2(C)C |  |  |  |  |  | IC50 [1]: 5 µM |
| C[C@@H]1CC[C@@H]([C@@H](c2ccccc2)c2c(O)c(C=O)c(O)c(C=O)c2O)[C@]2(C)CC[C@@H](C(C)(C)O)C=C12 |  |  |  |  |  | IC50 [1]: 5 µM |
| COc1c(CO)c(OC)c(C(=O)c2ccccc2)c2c1CC1CC/C(C)=C/CC(C)(C)/C=C/CC1(C)O2 (stereo not given) | 45.7 | Active | 95.5 | 80.8 | > 10 | viability at 5 µM (HK-2 [2]): 50.5%; viability at 1 µM (HK-2 [3]): 39.1%; Activity (HK-2 [6]): Dose-Dependent Effect; Activity (HK-2 [8]): >90%; viability at 10 µM (HK-2 [11]): 61.6% |
| C/C1=C\CC(C)(C)/C=C/CC2(C)Oc3c(c(O)c(C=O)c(O)c3C(=O)c3ccccc3)CC2CC1 (stereo not given) | 60.3 |  | 67.1 | 70.2 | > 10 |  |
| COc1c(CO)c2c(c(OC)c1C(=O)c1ccccc1)CC1CC/C(C)=C/CC(C)(C)/C=C/CC1(C)O2 (stereo not given) | 51.2 | Active | 83.3 | 73.6 | > 10 |  |
| COc1c2c(c(C(=O)O)c(OC)c1C(=O)c1ccccc1)OC1(C)C/C=C/C(C)(C)C/C=C(\C)CCC1C2 (stereo not given) | 48.2 | Active | 68.2 | 64.4 | > 10 |  |
| COc1c(CO)c2c(c(OC)c1C(=O)c1ccccc1)CC(C)C(C)(C)O2 (stereo not given) |  | Active |  |  | > 10 | viability at 5 µM (HK-2 [2]): 45.6%; viability at 1 µM (HK-2 [3]): 40.1%; viability at 10 µM (HK-2 [11]): 48.4% |
| COc1c(CN2CCN(C)CC2)c(OC)c(C(=O)c2ccccc2)c2c1CC1CC/C(C)=C/CC(C)(C)/C=C/CC1(C)O2 (stereo not given) | 46.3 |  | 47.8 | 57.9 | 9.1 |  |
| C/C1=C\CC(C)(C)/C=C/CC2(C)Oc3c(C=O)c(O)c(C(=O)c4ccccc4)c(O)c3CC2CC1 (stereo not given) | 61.1 |  | 42.7 | 66.8 | 7.72 |  |
| COc1c2c(c(CN3CCN(C)CC3)c(OC)c1C(=O)c1ccccc1)OC1(C)C/C=C/C(C)(C)C/C=C(\C)CCC1C2 (stereo not given) | 49.7 | Active | 64.2 | 59.6 | 9.5 |  |
| NCCCNCCSP(=O)(O)O [AMIFOSTINE] |  |  |  |  |  | Activity [12]: 28.2% |
| CC1(C)[C@H]2[C@H]3[C@@H](CC[C@]3(C)[C@@H](c3ccccc3)c3c(O)c(C=O)c(O)c(C=O)c3O)[C@](C)(O)CC[C@H]21 |  |  |  |  |  | IC50 [1]: 5 µM |
| COc1c2c(c(C(=O)c3ccccc3)c(OC)c1C(=O)O)OC1(C)C/C=C/C(C)(C)C/C=C(\C)CCC1C2 (stereo not given) | 48.4 | Active | 65 | 60.4 | > 10 |  |
| CC12CCCC1Cc1c(O)c(C=O)c(O)c(C(=O)c3ccccc3)c1O2 (stereo not given) |  | Active |  |  | > 10 | viability at 5 µM (HK-2 [2]): 49.6%; viability at 1 µM (HK-2 [3]): 41.5%; viability at 10 µM (HK-2 [11]): 51.7% |
| COc1c(C=O)c2c(c(OC)c1C(=O)c1ccccc1)CC1CC/C(C)=C/CC(C)(C)/C=C/CC1(C)O2 (stereo not given) | 70.4 | Active | 67.9 | 79.2 | > 10 |  |
| COc1c(C=O)c2c(c(OC)c1C(=O)c1ccccc1)CC1C[C@@H]3[C@H](CC1(C)O2)C3(C)C (stereo not given in full) |  |  |  |  | > 10 | viability at 5 µM (HK-2 [2]): 30.8%; viability at 1 µM (HK-2 [3]): 30.1%; viability at 10 µM (HK-2 [11]): 35.5% |
